Laboratory results from patent US20020132817A1, “Heterocyclic compounds, their production and use” (priority 1998, published 2002).

Experiments:
[1] = molecular target: T1, human NK2 receptor (Homo sapiens, UniProt P21452); assay: Binding inhibitory activity toward human NK2 receptor; conditions: (2-[125I]iodohistidyl1)Neurokinin A 0.1 nM, receptor expressed in COS-7 cells, room temperature 60 min
T1 construct: expressed in transfected cells; host or cells: COS-7 cells, transient transfection with an SRa-promoter expression vector; membrane preparation
T1 sequence (P21452 1-398): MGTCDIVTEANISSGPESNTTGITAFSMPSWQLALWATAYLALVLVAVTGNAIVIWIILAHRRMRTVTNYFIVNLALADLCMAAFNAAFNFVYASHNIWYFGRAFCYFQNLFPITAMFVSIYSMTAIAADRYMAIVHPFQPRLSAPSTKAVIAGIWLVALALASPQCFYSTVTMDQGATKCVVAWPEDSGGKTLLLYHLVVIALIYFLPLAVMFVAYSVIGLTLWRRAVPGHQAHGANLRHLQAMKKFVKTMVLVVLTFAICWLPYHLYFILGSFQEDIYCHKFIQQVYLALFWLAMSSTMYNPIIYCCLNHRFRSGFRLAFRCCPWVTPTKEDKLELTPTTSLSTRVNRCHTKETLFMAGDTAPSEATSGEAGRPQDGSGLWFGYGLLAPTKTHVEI

Row | Structure (SMILES) | melting point [°C] | IC50 [1] [nM]
1 | O=C1c2c(-c3ccccc3)ccnc2OCCCN1Cc1cc(C(F)(F)F)cc(C(F)(F)F)c1 [Reference Example 76, 5-[3,5-Bis(trifluoromethyl)benzyl]-2,3,4,5-tetrahydro-6-oxo-7-phenyl-6H-pyrido[2,3-b][1,5]oxazocine] | 188 to 189 | 7.5
2 | Cc1cc(-c2ccccc2)c2c(n1)OCCN(Cc1cc(C(F)(F)F)cc(C(F)(F)F)c1)C2=O [Reference Example 87, 4-[3,5-Bis(trifluoromethyl)benzyl]-2,3,4,5-tetrahydro-8-methyl-5-oxo-6-phenylpyrido[3,2-f][1,4]oxazepine] | 151 to 153 | 9.5
